Tested on: gut microbiota
Assay: Gut microbiome analysis (16S rRNA sequencing of fecal samples) in STAM model of NASH
Assay type: in vivo, C57BL/6J mice
Text: The study is reported in accordance with Animal Research: Reporting of In Vivo Experiments (ARRIVE) guidelines. C57BL/6J mice were obtained from Japan SLC, Inc. (Japan). All animals used in this study were cared for under the following guidelines: Act on Welfare and Management of Animals (Ministry of the Environment, Japan, Act No. 105 of Oct. 1, 1973), standards relating to the care and management of laboratory animals and relief of pain (Notice No. 88 of the Ministry of the Environment, Japan, Apr. 28, 2006) and the guidelines for proper conduct of animal experiments (Science Council of Japan, Jun. 1, 2006). Protocol approvals were obtained from SMC Laboratories, Japan's IACUC (Study reference no: […] Mice were maintained in a specific pathogen-free (SPF) facility under controlled conditions of temperature (23±3° C.), humidity (50±20%), lighting (12-hour artificial light and dark cycles; light from 8:00 to 20:00) and air exchange. The STAM model of NASH was induced as previously described [D10]. Mice were given a single subcutaneous injection of 200 μg streptozotocin (STZ, Sigma-Aldrich, USA) solution 2 days after birth and fed with a high-fat diet (HFD, 57 kcal % fat, Cat #HFD32, CLEA Japan, Inc., Japan) from 4-9 weeks of age. All mice develop liver steatosis and diabetes and at […] mice had established steatohepatitis, histologically. Studygroups: There were five study groups, described below. Eight mice were included in each study group. Eight NASH mice were orally administered vehicle supplemented with AFO-202 Beta Glucan at a dose of 1 mg/kg in a volume of 5 mL/kg once daily from 6 to 9 weeks of age. Eight NASH mice were orally administered vehicle supplemented with Telmisartan at a dose of 10 mg/kg once daily from 6 to 9 weeks of age. Frequency: Fecal samples were collected at the 6 weeks of age (before administration) and 9 weeks of age (before sacrifice). Procedure: At 6 weeks of age, fecal samples were collected from each mouse by clean catch method. […] A sterile petri dish was placed on the bench. Gently massage the abdomen, position the bottom of mouse over a fresh petri dish, and collect 1-2 fecal pellets. At sacrifice, fecal samples were aseptically collected from cecum. The tubes with feces were placed on ice immediately. These tubes were snap frozen in liquid nitrogen and stored at -80° C. for shipping. In this analysis, the 16S rRNA sequence data acquired by the next-generation sequencer from the fecal […] was used to perform community analysis using the QIIME2 program for microbial community analysis. The raw read data in FASTQ format output from the next-generation sequencer was trimmed to remove adapter sequences and low QV regions that may be included in the data. Cutadapt was used to remove adapter sequences from DNA sequencing reads. Trimmomatic was used as read trimming tool for Illumina NGS data. The adapter sequence was trimmed using the adapter trimming program “cutadapt” if the Trimming of the region at the end of the read sequence overlapped the corresponding sequence by at least one base (mismatch tolerance: 20%). When reads containing N were present in at least one of Read1 and Read2, both Read1 and Read2 were removed. Trimming of low QV regions was performed on the read data after processing using the QV trimming program “Trimmomatic” under the following conditions. The window of 20 bases is slid from the 5' side, and the area where the average QV is less than 20 is trimmed. After trimming, only the reads with more than 50 bases remaining in both Read1 and Read2 were taken as output. The microbial community analysis based on 16S rRNA sequence was performed on the sequence data trimmed in the previous section using the microbial community analysis program “QIIME2”. The annotation program “sklearn” included in QIIME2 is used to annotate the ASV (OTU) sequences. […]

## CCCc1nc2c(C)cc(-c3nc4ccccc4n3C)cc2n1Cc1ccc(-c2ccccc2C(=O)O)cc1 [Telmisartan]
post-intervention, table row r426
  Abundance: Family Erysipelotrichaceae, Genus —, Species —: 0
post-intervention, table row r427
  Abundance: Family Deferribacteraceae, Genus Mucispirillum, Species schaedleri: 0
post-intervention, table row r428
  Abundance: Family Methylobacteriaceae, Genus Methylobacterium, Species Other: 0
post-intervention, table row r429
  Abundance: Family Methanobacteriaceae, Genus Methanobrevibacter, Species —: 0
post-intervention, table row r431
  Abundance: Family Lachnospiraceae, Genus Other, Species Other: 0
post-intervention, table row r432
  Abundance: Family Lachnospiraceae, Genus Dorea, Species —: 0
post-intervention, table row r433
  Abundance: Family Lachnospiraceae, Genus Dorea, Species —: 0
post-intervention, table row r434
  Abundance: Family Lachnospiraceae, Genus —, Species —: 0
post-intervention, table row r435
  Abundance: Family Erysipelotrichaceae, Genus —, Species —: 0
post-intervention, table row r437
  Abundance: Family Other, Genus Other, Species Other: 0
post-intervention, table row r438
  Abundance: Family Ruminococcaceae, Genus Ruminococcus, Species —: 11
post-intervention, table row r439
  Abundance: Family Lachnospiraceae, Genus Other, Species Other: 0
post-intervention, table row r440
  Abundance: Family Erysipelotrichaceae, Genus Clostridum, Species cocleatum: 0
post-intervention, table row r441
  Abundance: Family Clostridiaceae, Genus —, Species —: 0
post-intervention, table row r442
  Abundance: Family S24-7, Genus —, Species —: 0
post-intervention, table row r443
  Abundance: Family Ruminococcaceae, Genus Oscillospira, Species —: 10
post-intervention, table row r446
  Abundance: Family Erysipelotrichaceae, Genus —, Species —: 9
post-intervention, table row r447
  Abundance: Family Streptococcaceae, Genus —, Species —: 0
post-intervention, table row r448
  Abundance: Family Erysipelotrichaceae, Genus —, Species —: 0
post-intervention, table row r449
  Abundance: Family Turicibacteraceae, Genus Turicibacter, Species —: 0
post-intervention, table row r450
  Abundance: Family S24-7, Genus —, Species —: 0
post-intervention, table row r451
  Abundance: Family Ruminococcaceae, Genus Oscillospira, Species —: 0
post-intervention, table row r452
  Abundance: Family Lachnospiraceae, Genus —, Species —: 0
post-intervention, table row r454
  Abundance: Family Erysipelotrichaceae, Genus —, Species —: 0
post-intervention, table row r455
  Abundance: Family Ruminococcaceae, Genus Ruminococcus, Species —: 7
post-intervention, table row r456
  Abundance: Family Moraxellaceae, Genus Psychrobacter, Species Other: 0
post-intervention, table row r457
  Abundance: Family Paenibacillaceae, Genus Other, Species Other: 0
post-intervention, table row r458
  Abundance: Family Lachnospiraceae, Genus Coprococcus, Species —: 0
post-intervention, table row r459
  Abundance: Family Bacillaceae, Genus Bacillus, Species —: 0
post-intervention, table row r460
  Abundance: Family Enterococcaceae, Genus Vagococcus, Species —: 0
post-intervention, table row r462
  Abundance: Family Lachnospiraceae, Genus —, Species —: 0
post-intervention, table row r466
  Abundance: Family Ruminococcaceae, Genus Oscillospira, Species —: 0
post-intervention, table row r468
  Abundance: Family Erysipelotrichaceae, Genus —, Species —: 0
post-intervention, table row r469
  Abundance: Family Other, Genus Other, Species Other: 4
post-intervention, table row r470
  Abundance: Family Clostridiaceae, Genus Clostridium, Species Other: 0
post-intervention, table row r473
  Abundance: Family Ruminococcaceae, Genus —, Species —: 0
post-intervention, table row r474
  Abundance: Family Deferribacteraceae, Genus Mucispirillum, Species schaedleri: 0
post-intervention, table row r475
  Abundance: Family Turicibacteraceae, Genus Turicibacter, Species —: 0
post-intervention, table row r478
  Abundance: Family [Mogibacteriaceae], Genus —, Species —: 0
post-intervention, table row r480
  Abundance: Family Lachnospiraceae, Genus Dorea, Species longicateria: 0
post-intervention, table row r481
  Abundance: Family Ruminococcaceae, Genus —, Species —: 0
post-intervention, table row r482
  Abundance: Family Lachnospiraceae, Genus —, Species —: 0
post, line r8
  Abundance Erysipelotrichaceae/Allobaculum/—: 622
post, line r9
  Abundance Turicibacteraceae/Turicibacter/—: 786
post, line r10
  Abundance Desulfovibrionaceae/—/—: 6012
post, line r11
  Abundance Clostridiaceae/Other/Other: 723
post, line r12
  Abundance Lactobacillaceae/Lactobacillus/—: 254
post, line r13
  Abundance Streptococcaceae/Lactococeus/—: 1948
post, line r14
  Abundance Bacteroidaceae/Bacteroides/—: 8412
post, line r15
  Abundance [Paraprevotellaceae]/[Prevotella]/—: 7582
post, line r16
  Abundance —/—/—: 6029
post, line r17
  Abundance Deferribacteraceae/Mucispirillum/schaedleri: 1921
post, line r18
  Abundance Bacteroidaceae/Bacteroides/acidifaciens: 2571
post, line r19
  Abundance —/—/—: 2764
post, line r20
  Abundance Verrucomicrobiaceae/Akkermansia/muciniphila: 320
post, line r22
  Abundance Enterobacteriaceae/Other/Other: 40
post, line r23
  Abundance Lactobacillaceae/Lactobacillus/—: 513
post, line r24
  Abundance S24-7/—/—: 411
post, line r25
  Abundance Lachnospiraceae/—/—: 1545
post, line r26
  Abundance Peptostreptocpccaceae/—/—: 181
post, line r27
  Abundance Lachnospiraceae/[Ruminococcus]/gnavus: 898
post, line r28
  Abundance Lachnospiraceae/Coprococeus/—: 1468
post, line r29
  Abundance Bifidobacteriaceae/Bifidobacterium/pseudolongum: 111
post, line r30
  Abundance Enterobacteriaceae/Proteus/—: 1153
post, line r31
  Abundance Lactobacillaceae/Lactobacillus/Other: 111
post, line r32
  Abundance S24-7/—/—: 329
post, line r33
  Abundance Porphyromonadaceae/Parabacteroides/distasonis: 1437
post, line r34
  Abundance Clostridiaceae/—/—: 79
post, line r35
  Abundance —/—/—: 536
post, line r36
  Abundance Desulfovibrionaceae/Desulfovibrio/—: 503
post, line r37
  Abundance S24-7/—/—: 271
post, line r38
  Abundance Coriobacteriaceae/Adlercreutzia/—: 135
post, line r39
  Abundance S24-7/—/—: 527
post, line r40
  Abundance Erysipelotrichaceae/Clostridium/cocleatum: 696
post, line r41
  Abundance Ruminococcaceae/Ruminococcus/—: 266
post, line r43
  Abundance Lachnospiraceae/Other/Other: 436
post, line r44
  Abundance Lachnospiraceae/[Ruminococcus]/gnavus: 87
post, line r45
  Abundance Turicibacteraceae/Turicibacter/—: 0
post, line r46
  Abundance Lachnospiraceae/—/—: 253
post, line r47
  Abundance Bacteroidaceae/Bacteroides/—: 2042
post, line r48
  Abundance Ruminococcaceae/Oscillospira/—: 621
post, line r49
  Abundance Clostridiaceae/Other/Other: 70
post, line r50
  Abundance Lachnospiraceae/Roseburia/—: 927
post, line r51
  Abundance Lachnospiraceae/—/—: 698
post, line r52
  Abundance S24-7/—/—: 104
post, line r53
  Abundance Lachnospiraceae/[Ruminococcus]/gnavus: 126
post, line r56
  Abundance Lachnospiraceae/Coprococcus/—: 562
post, line r57
  Abundance S24-7/—/—: 144
post, line r58
  Abundance S24-7/—/—: 410
post, line r60
  Abundance Lachnospiraceae/Other/Other: 245
post, line r61
  Abundance Lachnospiraceae/[Ruminococcus]/gnavus: 686
post, line r62
  Abundance Erysipelotrichaceae/Allobaculum/—: 0
post, line r63
  Abundance Desulfovibrionaceae/Desulfovibrio/C21_c20: 43
post, line r64
  Abundance S24-7/—/—: 152
post, line r66
  Abundance Streptococcaceae/Lactococcus/garvieae: 8
post, line r68
  Abundance Enterobacteriaceae/Proteus/—: 386
post, line r69
  Abundance Lachnospiraceae/—/—: 786
post, line r70
  Abundance S24-7/—/—: 74
post, line r71
  Abundance Lachnospiraceae/[Ruminococcus]/gnavus: 331
post, line r73
  Abundance Clostridiaceae/Clostridium/Other: 0
post, line r74
  Abundance Lachnospiraceae/—/—: 15
post, line r75
  Abundance Clostridiaceae/Other/Other: 49
post, line r78
  Abundance S24-7/—/—: 101

— US20240374631A1, “A COMPOSITION FOR IMPROVING GUT MICROBIOTA, BEHAVIOURAL PATTERN, ALPHA-SYNUCLEIN LEVELS, SLEEP PATTERN AND/OR SERUM MELATONIN” (GN Corporation Co Ltd, priority 2021, published 2024)
